Where two headings read alike, the source gives them in different places.
What was measured:
Format in all cases: cell-based
[1] = target: hGLP-1R (Homo sapiens, UniProt P43220); assay: Functional cAMP formation (HTRF) in HEK-293 clonal cells expressing hGLP-1R, 0.1% bovine casein, without or with 1.0% human serum albumin; parameters: expressed in transfected cells; settings: for EC50: geometric mean, read-out: hGLP-1R EC50, nM (SEM, n); for Emax: read-out: hGLP-1R Emax, % ± SEM
Procedure, shortened: (§1)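 Cells were stimulated with peptide for 30 min at 37° C, then intracellular cAMP was measured by competitive HTRF (665/620 nm ratio) and converted to nM using a cAMP standard curve. Relative EC50 and Emax came from four-parameter logistic fits of percent maximal response against peptide concentration.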

[2] = target: T1, hGCGR (Homo sapiens, UniProt P47871); assay: Functional cAMP formation (HTRF) in HEK-293 clonal cells expressing hGCGR, 0.1% bovine casein, without or with 1.0% human serum albumin; settings: geometric mean, read-out: hGCGR EC50, nM (SEM, n)
T1 construct: expressed in transfected cells
Procedure, shortened: as §1

[3] = target: T2, hGIPR (Homo sapiens, UniProt P48546); assay: Functional cAMP formation (HTRF) in HEK-293 clonal cells expressing hGIPR, 0.1% bovine casein, without or with 1.0% human serum albumin; settings: 37° C.; for Emax: read-out: hGIPR Emax, % ± SEM
T2 construct: expressed in transfected cells
T2 sequence (P48546 22-466): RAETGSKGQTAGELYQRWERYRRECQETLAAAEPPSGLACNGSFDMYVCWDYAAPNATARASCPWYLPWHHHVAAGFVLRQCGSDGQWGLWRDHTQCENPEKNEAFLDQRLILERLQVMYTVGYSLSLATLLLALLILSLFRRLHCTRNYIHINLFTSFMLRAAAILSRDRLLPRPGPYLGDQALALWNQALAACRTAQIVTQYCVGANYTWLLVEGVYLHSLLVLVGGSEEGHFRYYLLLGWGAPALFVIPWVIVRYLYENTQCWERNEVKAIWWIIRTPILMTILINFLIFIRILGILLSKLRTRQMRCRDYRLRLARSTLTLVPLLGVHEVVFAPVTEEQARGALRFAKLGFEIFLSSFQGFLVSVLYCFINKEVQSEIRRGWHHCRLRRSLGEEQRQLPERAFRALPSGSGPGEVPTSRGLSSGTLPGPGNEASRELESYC
Procedure, shortened: as §1

[4] = 0.1% bovine casein and 1.0% human serum albumin, 37° C.
[5] = HEK293, 0.1% bovine casein and 1.0% human serum albumin, 37° C., percent of maximal response to GLP-1(7-36)NH2
[6] = cAMP, incubated at 37° C., 0.1% bovine casein (no human serum albumin)
[7] = HEK293, 0.1% bovine casein and 1.0% human serum albumin, percent of maximal response to GIP(1-42)NH2
[8] = HEK293, percent of maximal response to GIP(1-42)NH2, 0.1% bovine casein, arithmetic mean
[9] = HEK293, percent of maximal response to GLP-1(7-36)NH2, 37° C., 0.1% bovine casein, arithmetic mean

Chain of hGLP-1R (P43220 24-463): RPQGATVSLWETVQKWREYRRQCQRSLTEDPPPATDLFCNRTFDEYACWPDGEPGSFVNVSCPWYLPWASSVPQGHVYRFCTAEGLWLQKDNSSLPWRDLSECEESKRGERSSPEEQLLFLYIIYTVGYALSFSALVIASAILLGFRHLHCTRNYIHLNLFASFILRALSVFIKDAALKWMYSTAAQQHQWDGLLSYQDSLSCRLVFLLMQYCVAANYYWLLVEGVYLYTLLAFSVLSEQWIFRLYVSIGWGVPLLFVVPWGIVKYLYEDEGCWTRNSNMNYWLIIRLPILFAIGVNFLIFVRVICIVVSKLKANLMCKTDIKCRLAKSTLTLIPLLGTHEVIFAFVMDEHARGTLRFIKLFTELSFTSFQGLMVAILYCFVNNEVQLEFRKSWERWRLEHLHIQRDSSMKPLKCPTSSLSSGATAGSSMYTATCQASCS
T1 sequence (P47871 26-477): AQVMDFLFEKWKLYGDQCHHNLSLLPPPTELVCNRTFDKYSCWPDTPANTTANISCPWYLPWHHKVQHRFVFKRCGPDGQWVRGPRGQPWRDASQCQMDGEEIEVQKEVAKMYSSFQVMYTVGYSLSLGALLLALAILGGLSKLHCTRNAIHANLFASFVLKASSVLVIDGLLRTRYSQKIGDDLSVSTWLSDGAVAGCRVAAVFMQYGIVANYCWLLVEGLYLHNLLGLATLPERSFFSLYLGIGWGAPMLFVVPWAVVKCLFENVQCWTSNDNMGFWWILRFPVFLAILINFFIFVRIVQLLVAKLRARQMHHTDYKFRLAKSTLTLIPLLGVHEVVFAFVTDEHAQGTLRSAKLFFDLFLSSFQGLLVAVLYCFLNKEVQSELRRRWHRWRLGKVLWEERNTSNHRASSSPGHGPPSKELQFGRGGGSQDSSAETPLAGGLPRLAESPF

CC[C@H](C)[C@H](NC(=O)[C@H](CC(C)C)NC(=O)[C@](C)(Cc1ccc(O)cc1)NC(=O)[C@@H](CCC(=O)O)NC(=O)[C@@H](NC(=O)[C@H](Cc1ccccc1)NC(=O)[C@H](CCC(=O)O)NC(=O)C(C)(C)NC(=O)[C@H](CCC(N)=O)NC(=O)[C@H](C)NC(=O)[C@H](CCCCNC(=O)COCCOCCNC(=O)COCCOCCNC(=O)CC[C@H](NC(=O)CCCCCCCCCCCCC(=O)O)C(=O)O)NC(=O)[C@H](CCCN)NC(=O)[C@H](CC(=O)O)NC(=O)[C@H](CC(C)C)NC(=O)[C@](C)(CC(C)C)NC(=O)[C@@H](NC(=O)[C@H](CN)NC(=O)[C@H](Cc1ccc(O)cc1)NC(=O)[C@H](CC(=O)O)NC(=O)[C@H](CO)NC(=O)[C@@H](NC(=O)[C@](C)(Cc1ccccc1F)NC(=O)[C@@H](NC(=O)CNC(=O)[C@H](CCC(=O)O)NC(=O)C(C)(C)NC(=O)[C@@H](N)Cc1ccc(O)cc1)[C@@H](C)O)[C@@H](C)O)[C@@H](C)CC)[C@@H](C)CC)C(=O)N[C@@H](CCC(=O)O)C(=O)NCC(=O)NCC(=O)N[C@@H](CCCCNC(=O)COCCOCCNC(=O)COCCOCCNC(=O)CC[C@H](NC(=O)CCCCCCCCCCCCC(=O)O)C(=O)O)C(=O)N[C@@H](CO)C(=O)N[C@@H](CO)C(=O)NCC(=O)N[C@@H](C)C(=O)N1CCC[C@H]1C(=O)N1CCC[C@H]1C(=O)N1CCC[C@H]1C(=O)N[C@@H](CO)C(N)=O [Example 200]
EC50 [1, 4]: 26.6 nM
Emax [1, 5]: 97.4%
EC50 [2, 4]: > 9950 nM
EC50 [2, 6]: > 9950 nM
Emax [3, 7]: 83.7%
Emax [3, 8]: 96.3 ± 2.76%

CC[C@H](C)[C@H](NC(=O)[C@H](CC(C)C)NC(=O)[C@](C)(Cc1ccc(O)cc1)NC(=O)[C@@H](CCC(=O)O)NC(=O)[C@@H](NC(=O)[C@H](Cc1ccccc1)NC(=O)[C@H](CCC(=O)O)NC(=O)C(C)(C)NC(=O)[C@H](CCC(N)=O)NC(=O)[C@H](C)NC(=O)[C@H](CCCCNC(=O)COCCOCCNC(=O)COCCOCCNC(=O)CC[C@H](NC(=O)CCCCCCCCCCCCC(=O)O)C(=O)O)NC(=O)[C@H](CCCN)NC(=O)[C@H](CC(=O)O)NC(=O)[C@H](CC(C)C)NC(=O)[C@](C)(CC(C)C)NC(=O)[C@@H](NC(=O)[C@H](CN)NC(=O)[C@@H](NC(=O)[C@H](CC(=O)O)NC(=O)[C@H](CO)NC(=O)[C@@H](NC(=O)[C@](C)(Cc1ccccc1F)NC(=O)[C@@H](NC(=O)CNC(=O)[C@H](CCC(=O)O)NC(=O)C(C)(C)NC(=O)[C@@H](N)Cc1ccc(O)cc1)[C@@H](C)O)[C@@H](C)O)C(C)C)[C@@H](C)CC)[C@@H](C)CC)C(=O)N[C@@H](CCC(=O)O)C(=O)NCC(=O)NCC(=O)N[C@@H](CCCCNC(=O)COCCOCCNC(=O)COCCOCCNC(=O)CC[C@H](NC(=O)CCCCCCCCCCCCC(=O)O)C(=O)O)C(=O)N[C@@H](CO)C(=O)N[C@@H](CO)C(=O)NCC(=O)N[C@@H](C)C(=O)N1CCC[C@H]1C(=O)N1CCC[C@H]1C(=O)N1CCC[C@H]1C(=O)N[C@@H](CO)C(N)=O [Example 201]
EC50 [1, 4]: 25.1 nM
Emax [1, 9]: 105 ± 4.51%
EC50 [2, 4]: > 9950 nM
EC50 [2, 6]: > 9950 nM
Emax [3, 7]: 80.5%
Emax [3, 8]: 92.2 ± 3.26%

CC[C@H](C)[C@H](NC(=O)[C@H](CC(C)C)NC(=O)[C@](C)(Cc1ccc(O)cc1)NC(=O)[C@@H](CCC(=O)O)NC(=O)[C@@H](NC(=O)[C@H](Cc1ccccc1)NC(=O)[C@H](CCC(=O)O)NC(=O)C(C)(C)NC(=O)[C@H](CCC(N)=O)NC(=O)[C@H](C)NC(=O)[C@H](CCCCNC(=O)COCCOCCNC(=O)COCCOCCNC(=O)CC[C@H](NC(=O)CCCCCCCCCCCCC(=O)O)C(=O)O)NC(=O)[C@H](CCCN)NC(=O)[C@H](CC(=O)O)NC(=O)[C@H](CC(C)C)NC(=O)[C@](C)(CC(C)C)NC(=O)[C@@H](NC(=O)[C@@H](NC(=O)[C@H](Cc1ccncc1)NC(=O)[C@H](CC(=O)O)NC(=O)[C@H](CO)NC(=O)[C@@H](NC(=O)[C@](C)(Cc1ccccc1F)NC(=O)[C@@H](NC(=O)CNC(=O)[C@H](CCC(=O)O)NC(=O)C(C)(C)NC(=O)[C@@H](N)Cc1ccc(O)cc1)[C@@H](C)O)[C@@H](C)O)C(C)(C)C)[C@@H](C)CC)[C@@H](C)CC)C(=O)N[C@@H](CCC(=O)O)C(=O)NCC(=O)NCC(=O)N[C@@H](CCCCNC(=O)COCCOCCNC(=O)COCCOCCNC(=O)CC[C@H](NC(=O)CCCCCCCCCCCCC(=O)O)C(=O)O)C(=O)N[C@@H](CO)C(=O)N[C@@H](CO)C(=O)NCC(=O)N[C@@H](C)C(=O)N1CCC[C@H]1C(=O)N1CCC[C@H]1C(=O)N1CCC[C@H]1C(=O)N[C@@H](CO)C(N)=O [Example 202]
Emax [1, 5]: 109%
Emax [1, 9]: 92.2%
EC50 [2, 4]: > 9950 nM
EC50 [2, 6]: > 9950 nM
Emax [3, 7]: 75.3%
Emax [3, 8]: 86%

CC[C@H](C)[C@H](NC(=O)[C@H](CCCN)NC(=O)[C@H](CC(=O)O)NC(=O)[C@H](CC(C)C)NC(=O)[C@](C)(CC(C)C)NC(=O)[C@@H](NC(=O)[C@H](CO)NC(=O)[C@H](Cc1ccncc1)NC(=O)[C@H](CC(=O)O)NC(=O)[C@H](CO)NC(=O)[C@@H](NC(=O)[C@](C)(Cc1ccccc1F)NC(=O)[C@@H](NC(=O)CNC(=O)[C@H](CCC(=O)O)NC(=O)C(C)(C)NC(=O)[C@@H](N)Cc1ccc(O)cc1)[C@@H](C)O)[C@@H](C)O)[C@@H](C)CC)C(=O)N[C@@H](C)C(=O)N[C@@H](CCC(N)=O)C(=O)NC(C)(C)C(=O)N[C@@H](CCC(=O)O)C(=O)N[C@@H](Cc1ccccc1)C(=O)N[C@H](C(=O)N[C@@H](CCCCNC(=O)COCCOCCNC(=O)COCCOCCNC(=O)CC[C@H](NC(=O)CCCc1ccc(C(C)(C)C)cc1)C(=O)O)C(=O)N[C@@](C)(Cc1ccc(O)cc1)C(=O)N[C@@H](CC(C)C)C(=O)N[C@H](C(=O)N[C@@H](CCCCNC(=O)COCCOCCNC(=O)COCCOCCNC(=O)CC[C@H](NC(=O)CCCc1ccc(C(C)(C)C)cc1)C(=O)O)C(=O)NCC(=O)NCC(=O)N1CCC[C@H]1C(=O)N[C@@H](CO)C(=O)N[C@@H](CO)C(=O)NCC(=O)N[C@@H](C)C(=O)N1CCC[C@H]1C(=O)N1CCC[C@H]1C(=O)N1CCC[C@H]1C(=O)N[C@@H](CO)C(N)=O)[C@@H](C)CC)[C@@H](C)CC [Example 203]
EC50 [1, 4]: 3.38 nM
Emax [1, 5]: 105%
Emax [1, 9]: 119%
EC50 [1, 6]: 0.535 nM
EC50 [2, 4]: > 9950 nM
EC50 [2, 6]: > 9950 nM
Emax [3, 7]: 87.2%

CC[C@H](C)[C@H](NC(=O)[C@H](CCCN)NC(=O)[C@H](CC(=O)O)NC(=O)[C@H](CC(C)C)NC(=O)[C@](C)(CC(C)C)NC(=O)[C@@H](NC(=O)[C@H](CO)NC(=O)[C@H](Cc1ccncc1)NC(=O)[C@H](CC(=O)O)NC(=O)[C@H](CO)NC(=O)[C@@H](NC(=O)[C@](C)(Cc1ccccc1F)NC(=O)[C@@H](NC(=O)CNC(=O)[C@H](CCC(=O)O)NC(=O)C(C)(C)NC(=O)[C@@H](N)Cc1ccc(O)cc1)[C@@H](C)O)[C@@H](C)O)[C@@H](C)CC)C(=O)N[C@@H](C)C(=O)N[C@@H](CCC(N)=O)C(=O)NC(C)(C)C(=O)N[C@@H](CCCCNC(=O)COCCOCCNC(=O)COCCOCCNC(=O)CC[C@H](NC(=O)CCCc1ccc(C(C)(C)C)cc1)C(=O)O)C(=O)N[C@@H](Cc1ccccc1)C(=O)N[C@H](C(=O)N[C@H](CCC(=O)O)C(=O)N[C@@](C)(Cc1ccc(O)cc1)C(=O)N[C@@H](CC(C)C)C(=O)N[C@H](C(=O)N[C@@H](CCCCNC(=O)COCCOCCNC(=O)COCCOCCNC(=O)CC[C@H](NC(=O)CCCc1ccc(C(C)(C)C)cc1)C(=O)O)C(=O)NCC(=O)NCC(=O)N1CCC[C@H]1C(=O)N[C@@H](CO)C(=O)N[C@@H](CO)C(=O)NCC(=O)N[C@@H](C)C(=O)N1CCC[C@H]1C(=O)N1CCC[C@H]1C(=O)N1CCC[C@H]1C(=O)N[C@@H](CO)C(N)=O)[C@@H](C)CC)[C@@H](C)CC [Example 204]
EC50 [1, 4]: 2.44 nM
Emax [1, 9]: 126%
EC50 [2, 4]: > 9950 nM
EC50 [2, 6]: > 9950 nM
EC50 ([3]; 0.1% bovine casein and 1.0% human serum albumin, geometric mean, read-out: hGIPR EC50, nM (SEM, n)): 0.341 nM
Emax [3, 7]: 83.3%
